Results reported in ChEMBL document CHEMBL1201862, “PubChem BioAssay data set” (2004).
Calls of active or inactive are those of the source.

Key:
[1] = target: T1, Ubiquitin-conjugating enzyme E2 N (Homo sapiens, UniProt P61088); assay type: functional;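 also: Dose-response confirmation in a TR-FRET assay detecting UBC13-driven polyubiquitin chain formation, inhibition measured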
T1 sequence (P61088 whole entry): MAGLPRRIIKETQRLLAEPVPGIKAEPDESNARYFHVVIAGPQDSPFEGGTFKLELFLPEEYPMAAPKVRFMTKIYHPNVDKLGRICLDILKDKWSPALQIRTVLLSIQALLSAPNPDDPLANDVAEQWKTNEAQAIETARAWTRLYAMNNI

Cytochrome P450 2C9 = Cytochrome P450 2C9 (Homo sapiens, UniProt P11712)
Cytochrome P450 2C19 = Cytochrome P450 2C19 (Homo sapiens, UniProt P33261); experiment: Cytochrome panel assay with activity outcomes. Panel member name: p450-cyp2c19 Compounds with AC50 equal or less than 10 uM are considered active; assay type: functional; conditions: read-out: AC50
Cytochrome P450 2D6 = Cytochrome P450 2D6 (Homo sapiens, UniProt P10635);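 also: CYP2D6 member of a cytochrome P450 panel assay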
Cytochrome P450 3A4 = Cytochrome P450 3A4 (Homo sapiens, UniProt P08684);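 also: CYP3A4 tested as one member of a cytochrome P450 panel screen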
Cytochrome P450 1A2 = target: T2, Cytochrome P450 1A2 (Homo sapiens, UniProt P05177);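 also: PubChem cytochrome P450 panel assay, CYP1A2 panel member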
T2 sequence (P05177 whole entry): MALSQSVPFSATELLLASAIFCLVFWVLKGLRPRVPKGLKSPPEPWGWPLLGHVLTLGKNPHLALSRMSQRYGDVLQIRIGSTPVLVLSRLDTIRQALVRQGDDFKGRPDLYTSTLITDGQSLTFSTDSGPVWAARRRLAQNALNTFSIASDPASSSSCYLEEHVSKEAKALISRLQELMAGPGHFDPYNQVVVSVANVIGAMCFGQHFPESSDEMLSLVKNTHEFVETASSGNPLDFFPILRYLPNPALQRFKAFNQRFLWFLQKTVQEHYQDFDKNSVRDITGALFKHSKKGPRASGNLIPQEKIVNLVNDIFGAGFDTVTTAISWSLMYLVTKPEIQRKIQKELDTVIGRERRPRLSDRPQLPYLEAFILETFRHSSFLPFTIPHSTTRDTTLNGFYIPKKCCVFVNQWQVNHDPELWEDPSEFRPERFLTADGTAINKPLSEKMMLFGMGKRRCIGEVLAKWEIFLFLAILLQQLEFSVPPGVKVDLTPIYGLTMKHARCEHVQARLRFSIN

Genome polyprotein = Genome polyprotein (dengue virus type 2, UniProt P29990); experiment: Dengue-2 NS5 methyltransferase inhibitors, primary screen, biochemical, confirmation dose response (AID 588689); assay type: functional
Large T antigen = Large T antigen (Simian virus 40, UniProt P03070); assay type: functional, Betapolyomavirus macacae;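 also: Confirmatory-stage PubChem screen for compounds that inhibit SV40 T antigen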
[2] = target: Induced myeloid leukemia cell differentiation protein Mcl-1 (Homo sapiens, UniProt Q07820); assay type: functional
P388 = experiment: cells; assay type: functional; conditions: Mus musculus
P388/ADR = experiment: cells; assay type: functional; conditions: Mus musculus
SN12K1 = experiment: cells; assay type: functional; conditions: Homo sapiens
[3] = target: T3, Carboxy-terminal domain RNA polymerase II polypeptide A small phosphatase 1 (Homo sapiens, UniProt Q9GZU7); experiment: inhibitors of CTDSP1, concentration-response testing, biochemical assay, absorbance-based, actives from ultra-high-throughput screening (AID 540297); assay type: functional
T3 sequence (Q9GZU7 whole entry): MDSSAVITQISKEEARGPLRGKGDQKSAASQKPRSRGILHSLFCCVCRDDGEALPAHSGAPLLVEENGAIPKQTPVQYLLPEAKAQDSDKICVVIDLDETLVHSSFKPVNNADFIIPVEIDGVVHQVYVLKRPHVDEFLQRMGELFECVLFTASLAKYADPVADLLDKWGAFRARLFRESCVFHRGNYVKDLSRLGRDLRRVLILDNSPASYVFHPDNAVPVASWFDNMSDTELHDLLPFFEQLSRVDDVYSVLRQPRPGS

[4] = target: T4, Rac GTPase-activating protein 1 (Homo sapiens, UniProt Q9H0H5); experiment: MgcRacGAP GTPase-activating activity inhibitors, confirmation, biochemical, ADP Hunter fluorescence, primary and confirmatory (AID 624330); assay type: functional
T4 sequence (Q9H0H5 whole entry): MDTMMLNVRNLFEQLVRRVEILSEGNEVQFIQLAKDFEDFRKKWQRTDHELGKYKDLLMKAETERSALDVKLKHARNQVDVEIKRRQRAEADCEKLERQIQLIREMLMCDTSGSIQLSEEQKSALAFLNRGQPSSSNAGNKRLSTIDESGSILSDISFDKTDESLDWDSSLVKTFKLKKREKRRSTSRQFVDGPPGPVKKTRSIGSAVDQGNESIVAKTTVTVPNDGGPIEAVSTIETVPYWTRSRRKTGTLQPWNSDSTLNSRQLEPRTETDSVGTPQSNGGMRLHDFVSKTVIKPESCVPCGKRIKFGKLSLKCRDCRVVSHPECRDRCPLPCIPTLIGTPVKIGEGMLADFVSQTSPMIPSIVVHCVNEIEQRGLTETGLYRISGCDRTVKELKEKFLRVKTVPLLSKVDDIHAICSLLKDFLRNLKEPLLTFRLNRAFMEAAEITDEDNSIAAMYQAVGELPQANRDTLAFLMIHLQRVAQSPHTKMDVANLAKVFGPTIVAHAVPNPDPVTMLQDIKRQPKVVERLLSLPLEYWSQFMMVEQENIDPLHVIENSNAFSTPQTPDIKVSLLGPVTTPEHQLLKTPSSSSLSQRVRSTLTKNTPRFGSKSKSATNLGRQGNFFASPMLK

Leucine aminopeptidase = target: T5, Leucine aminopeptidase (Plasmodium falciparum 3D7, UniProt Q8IL11); experiment: P. falciparum M17LAP inhibitors, primary screen, biochemical, fluorogenic H-Leu-NHMec substrate, 1536-well (AID 1619); assay type: functional
T5 sequence (Q8IL11 whole entry): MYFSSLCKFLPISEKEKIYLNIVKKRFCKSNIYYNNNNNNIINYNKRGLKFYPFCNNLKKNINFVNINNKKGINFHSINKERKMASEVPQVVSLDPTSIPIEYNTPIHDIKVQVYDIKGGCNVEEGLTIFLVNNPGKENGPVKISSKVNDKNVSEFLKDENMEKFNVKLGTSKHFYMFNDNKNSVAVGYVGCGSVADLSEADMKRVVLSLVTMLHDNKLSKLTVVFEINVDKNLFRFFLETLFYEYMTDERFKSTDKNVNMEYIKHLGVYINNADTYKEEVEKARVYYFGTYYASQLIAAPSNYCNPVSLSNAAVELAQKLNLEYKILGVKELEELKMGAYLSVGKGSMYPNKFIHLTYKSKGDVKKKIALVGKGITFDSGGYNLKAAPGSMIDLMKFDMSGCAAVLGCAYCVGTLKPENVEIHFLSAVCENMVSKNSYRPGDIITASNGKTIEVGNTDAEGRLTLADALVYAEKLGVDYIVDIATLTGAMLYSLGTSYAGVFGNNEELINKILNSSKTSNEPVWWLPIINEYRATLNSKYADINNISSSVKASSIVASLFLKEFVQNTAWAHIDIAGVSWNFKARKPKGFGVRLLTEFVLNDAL

Sequence of Cytochrome P450 2D6 (P10635 whole entry): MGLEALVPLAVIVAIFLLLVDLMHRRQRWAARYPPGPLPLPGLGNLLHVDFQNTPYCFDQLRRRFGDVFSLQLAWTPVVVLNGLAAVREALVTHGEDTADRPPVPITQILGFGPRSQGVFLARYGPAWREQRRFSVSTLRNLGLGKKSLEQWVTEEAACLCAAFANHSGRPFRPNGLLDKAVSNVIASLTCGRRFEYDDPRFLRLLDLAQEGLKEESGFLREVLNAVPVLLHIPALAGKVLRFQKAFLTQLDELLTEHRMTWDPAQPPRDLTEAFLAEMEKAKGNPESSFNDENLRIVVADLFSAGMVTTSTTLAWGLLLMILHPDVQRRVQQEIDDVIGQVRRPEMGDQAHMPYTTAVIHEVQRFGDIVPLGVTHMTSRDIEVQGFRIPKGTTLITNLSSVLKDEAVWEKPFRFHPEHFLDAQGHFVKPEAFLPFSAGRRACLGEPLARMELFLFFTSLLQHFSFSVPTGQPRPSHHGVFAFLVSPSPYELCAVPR
Sequence of Cytochrome P450 2C9 (P11712 whole entry): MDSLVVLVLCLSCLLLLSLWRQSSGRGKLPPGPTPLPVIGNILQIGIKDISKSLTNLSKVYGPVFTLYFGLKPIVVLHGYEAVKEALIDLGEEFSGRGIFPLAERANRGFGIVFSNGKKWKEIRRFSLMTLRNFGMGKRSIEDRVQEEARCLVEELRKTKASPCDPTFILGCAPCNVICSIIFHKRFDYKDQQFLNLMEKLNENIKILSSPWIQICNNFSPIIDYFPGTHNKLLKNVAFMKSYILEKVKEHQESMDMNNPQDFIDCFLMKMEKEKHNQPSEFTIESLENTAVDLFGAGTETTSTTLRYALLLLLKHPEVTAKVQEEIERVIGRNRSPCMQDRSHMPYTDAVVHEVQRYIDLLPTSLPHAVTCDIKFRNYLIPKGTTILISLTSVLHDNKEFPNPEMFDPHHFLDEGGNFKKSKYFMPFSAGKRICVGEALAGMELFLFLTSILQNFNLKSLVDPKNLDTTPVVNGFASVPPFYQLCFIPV
Sequence of Induced myeloid leukemia cell differentiation protein Mcl-1 (Q07820 whole entry): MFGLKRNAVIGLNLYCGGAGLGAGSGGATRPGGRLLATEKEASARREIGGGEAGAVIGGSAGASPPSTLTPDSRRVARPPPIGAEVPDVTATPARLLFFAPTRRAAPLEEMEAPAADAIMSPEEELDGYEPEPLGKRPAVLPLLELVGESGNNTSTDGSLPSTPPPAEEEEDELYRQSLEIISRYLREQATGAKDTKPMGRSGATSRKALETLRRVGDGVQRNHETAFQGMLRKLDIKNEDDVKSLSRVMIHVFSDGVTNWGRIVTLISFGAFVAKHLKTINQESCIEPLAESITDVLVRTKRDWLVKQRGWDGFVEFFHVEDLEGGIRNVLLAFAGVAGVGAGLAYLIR
Sequence of Cytochrome P450 2C19 (P33261 whole entry): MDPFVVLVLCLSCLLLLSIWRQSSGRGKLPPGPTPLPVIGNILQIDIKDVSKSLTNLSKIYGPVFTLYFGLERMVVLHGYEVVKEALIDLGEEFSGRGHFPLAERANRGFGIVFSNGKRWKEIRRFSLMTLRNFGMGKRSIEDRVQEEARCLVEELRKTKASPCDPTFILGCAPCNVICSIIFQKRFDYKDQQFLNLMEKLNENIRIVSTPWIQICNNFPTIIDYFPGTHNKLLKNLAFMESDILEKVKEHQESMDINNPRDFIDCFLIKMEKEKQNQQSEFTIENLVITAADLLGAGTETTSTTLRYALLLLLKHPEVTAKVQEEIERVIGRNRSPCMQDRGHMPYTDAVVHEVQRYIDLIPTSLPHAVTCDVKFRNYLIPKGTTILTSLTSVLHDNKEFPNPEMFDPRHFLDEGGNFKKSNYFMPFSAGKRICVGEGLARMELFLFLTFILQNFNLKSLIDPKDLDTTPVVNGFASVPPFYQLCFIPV
Sequence of Large T antigen (P03070 whole entry): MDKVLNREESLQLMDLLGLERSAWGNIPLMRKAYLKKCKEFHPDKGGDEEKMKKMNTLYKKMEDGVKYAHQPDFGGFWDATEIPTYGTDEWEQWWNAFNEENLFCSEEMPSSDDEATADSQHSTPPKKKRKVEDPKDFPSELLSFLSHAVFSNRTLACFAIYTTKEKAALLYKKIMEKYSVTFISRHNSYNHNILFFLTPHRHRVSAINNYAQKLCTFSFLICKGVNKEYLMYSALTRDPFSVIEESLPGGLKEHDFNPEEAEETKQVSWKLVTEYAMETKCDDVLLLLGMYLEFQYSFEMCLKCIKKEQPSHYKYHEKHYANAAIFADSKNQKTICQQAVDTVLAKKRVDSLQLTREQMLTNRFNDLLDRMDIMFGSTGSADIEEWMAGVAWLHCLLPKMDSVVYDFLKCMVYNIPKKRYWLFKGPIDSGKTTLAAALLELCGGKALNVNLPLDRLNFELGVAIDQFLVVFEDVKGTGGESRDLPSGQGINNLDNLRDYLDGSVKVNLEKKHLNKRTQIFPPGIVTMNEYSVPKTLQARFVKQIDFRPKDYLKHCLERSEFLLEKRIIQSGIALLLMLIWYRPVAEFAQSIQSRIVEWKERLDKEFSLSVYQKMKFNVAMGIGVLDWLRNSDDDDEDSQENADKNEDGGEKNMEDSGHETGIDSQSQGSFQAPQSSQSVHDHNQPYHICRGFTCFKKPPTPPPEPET
Sequence of Genome polyprotein (P29990 2492-3391 limits assumed): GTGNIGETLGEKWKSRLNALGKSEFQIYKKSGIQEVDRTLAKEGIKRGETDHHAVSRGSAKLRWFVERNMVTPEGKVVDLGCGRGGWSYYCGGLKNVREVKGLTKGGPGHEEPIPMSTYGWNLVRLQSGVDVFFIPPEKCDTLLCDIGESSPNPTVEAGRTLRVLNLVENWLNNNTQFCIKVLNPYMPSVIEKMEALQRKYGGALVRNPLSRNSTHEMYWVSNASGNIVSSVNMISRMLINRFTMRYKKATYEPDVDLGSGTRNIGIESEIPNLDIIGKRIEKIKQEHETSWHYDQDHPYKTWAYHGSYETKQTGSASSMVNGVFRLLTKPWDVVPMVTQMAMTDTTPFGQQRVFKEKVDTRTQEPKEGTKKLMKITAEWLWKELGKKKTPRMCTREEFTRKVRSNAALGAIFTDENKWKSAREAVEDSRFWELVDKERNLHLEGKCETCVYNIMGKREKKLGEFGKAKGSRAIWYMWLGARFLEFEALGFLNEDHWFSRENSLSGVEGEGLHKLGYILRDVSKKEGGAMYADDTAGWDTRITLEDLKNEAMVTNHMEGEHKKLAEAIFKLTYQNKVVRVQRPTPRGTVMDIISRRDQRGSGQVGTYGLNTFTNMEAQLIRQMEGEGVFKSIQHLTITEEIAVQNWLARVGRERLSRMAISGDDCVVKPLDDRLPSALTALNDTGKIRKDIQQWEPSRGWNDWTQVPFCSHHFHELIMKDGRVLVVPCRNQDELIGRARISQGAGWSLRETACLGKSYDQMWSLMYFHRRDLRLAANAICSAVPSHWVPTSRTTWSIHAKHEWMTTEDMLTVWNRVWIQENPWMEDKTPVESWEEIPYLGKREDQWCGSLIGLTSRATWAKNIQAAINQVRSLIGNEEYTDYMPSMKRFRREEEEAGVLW
Sequence of Cytochrome P450 3A4 (P08684 whole entry): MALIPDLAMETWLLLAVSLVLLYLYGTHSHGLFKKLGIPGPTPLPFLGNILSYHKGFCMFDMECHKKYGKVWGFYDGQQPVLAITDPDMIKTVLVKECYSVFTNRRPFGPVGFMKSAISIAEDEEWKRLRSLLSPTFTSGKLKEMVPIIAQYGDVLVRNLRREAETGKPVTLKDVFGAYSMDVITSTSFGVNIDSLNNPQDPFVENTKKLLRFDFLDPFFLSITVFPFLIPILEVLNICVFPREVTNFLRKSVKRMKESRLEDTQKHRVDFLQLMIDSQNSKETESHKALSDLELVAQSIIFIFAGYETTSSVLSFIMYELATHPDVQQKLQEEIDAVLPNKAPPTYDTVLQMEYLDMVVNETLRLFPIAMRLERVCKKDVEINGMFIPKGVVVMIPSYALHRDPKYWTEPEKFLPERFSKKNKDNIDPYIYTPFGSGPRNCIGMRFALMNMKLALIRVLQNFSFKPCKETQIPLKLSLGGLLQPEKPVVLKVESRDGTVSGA

SMILES	GI50 (P388)	GI50 (P388/ADR)	GI50 (SN12K1)	also measured
COc1ccc(N(C(=O)c2snc(C(N)=O)c2N)C(C(=O)NC2CCCCC2)c2ccc(C)o2)cc1 (stereo not given)				IC50 [1]: > 20 µM (inactive)
CS(=O)(=O)Nc1cccc(-c2cc(Nc3ccccc3)ncn2)c1				AC50 (Cytochrome P450 2C9): inconclusive; AC50 (Cytochrome P450 2C19): 31.6 µM (inconclusive); AC50 (Cytochrome P450 2D6): 25.1 µM (inconclusive)
COc1ccc(CNc2nc(-c3ccccc3CN(C)C)nc3ccccc23)c(OC)c1				AC50 (Cytochrome P450 2C9): inconclusive; AC50 (Cytochrome P450 2C19): 15.8 µM (inconclusive)
Cc1ccccc1C(=O)NN(C)c1nc2ccccc2nc1C(F)(F)F				AC50 (Cytochrome P450 2C9): inconclusive; AC50 (Cytochrome P450 3A4): 7.08 µM (inconclusive)
CCn1c(SC)nnc1C1CCN(S(=O)(=O)c2ccc(OC)cc2)CC1				AC50 (Cytochrome P450 2C9): inconclusive; AC50 (Cytochrome P450 2D6): 8.91 µM (inconclusive)
CCCCCCCCCCCCCCCCCC(=O)NC[C@@H](COP(=O)([O-])OCC[N+](C)(C)C)OCC				AC50 (Cytochrome P450 2C9): inconclusive; AC50 (Cytochrome P450 2D6): 39.8 µM (inconclusive); AC50 (Cytochrome P450 1A2): 39.8 µM (inconclusive)
COc1ccc(NC(=O)CSc2nc3c(sc4ccccc43)c(=O)n2CCCN2CCCC2)cc1				IC50 [1]: > 20 µM (inactive)
O=C(COc1cccnc1[N+](=O)[O-])c1ccc(Cl)s1				IC50 (Genome polyprotein): > 100 µM (active); IC50 (Large T antigen): 67.7 µM (active); IC50 [2]: 3.78 µM (active)
CCc1ccccc1N1CCN(C(=O)c2cc(OC)c(OC)c(OC)c2)CC1	0.0395 µM (active)	0.119 µM (active)	0.0614 µM (active)	
COc1ccc(/C=N/NC(=O)c2ccc(O)cc2O)cc1CSc1ccccn1				IC50 [3]: 5.92 µM (active); IC50 [2]: 3.42 µM (active)
NC1CCCCC1	92.9 µM (inactive)		243 µM (inactive)	
CC(=O)[C@H]1CCC2[C@@H]3CC=C4C(O)C(OS(=O)(=O)O)CC[C@]4(C)C3CC[C@@]21C (stereo not given in full)	> 100 µM (inactive)	> 100 µM (inactive)	> 100 µM (inactive)	
CC1[C@@H]2CC=C3C4CCC5Cc6nc7c(nc6C[C@@]5(C)C4CC(=O)[C@]32CO[C@@]1(O)C(O)CC(C)(C)O)CC1CCC2C3=C[C@H]4O[C@@]5(O[C@@](C)(CO)C[C@@H]5O)C(C)[C@@]4(O)[C@]3(C)[C@@H](O)CC2[C@]1(C)C7 (stereo not given in full)	< 0.00036 µM (active)	0.0105 µM (active)	< 0.00036 µM (active)	
O=C1C2C3C=CC(CC3)C2C(=O)N1/N=C/c1ccc(O)c(O)c1 (stereo not given)				IC50 (Large T antigen): 4.4 µM (active); IC50 [4]: 74 µM (active); IC50 (Leucine aminopeptidase): 34.3 µM (active)
CC[C@](O)(C(=O)O)c1cc2n(c(=O)c1CO)Cc1cc3ccccc3nc1-2	0.025 µM (active)	0.03 µM (active)	0.209 µM (active)	
COCCO [2-METHOXYETHANOL]	> 100 µM (inactive)	> 100 µM (inactive)	> 100 µM (inactive)	
NC(Cc1c[nH]c2ccccc12)C(=O)O (stereo not drawn) [DL-TRYPTOPHAN]	269 µM (inactive)	> 300 µM (inactive)	> 300 µM (inactive)	
Nc1n[nH]c(N)n1 [GUANAZOLE]	728 µM (inactive)	1060 µM (inactive)	2830 µM (inactive)	
